# Values of other authors as cited in patent US20040235767A1, “Anti-angiogenic and immunotherapeutic compositions for cancer treatment” (priority 2004, published 2004).
# Tested on: large tumours
# Conditions: previously reported
smiles,measurement,value
"Cc1ccc2c(=O)c3cccc(CC(=O)O)c3oc2c1C [DMXAA, 5,6-dimethylxanthenone-4-acetic acid]",effect on large tumours in combination with B7-1-mediated immunotherapy,eradication of large tumours
